{"source": "patent US20230270753A1", "about": "“COMBINATIONS OF GABAA ALPHA 5 AGONISTS AND SV2A INHIBITORS AND METHODS OF USING IN THE TREATMENT OF COGNITIVE IMPAIRMENT” (AGENEBIO, INC., priority 2020, published 2023)", "key": {"MAM-treated rats": {"tested_on": "MAM-treated rats", "conditions": "cited from earlier work"}, "[1]": {"assay": "Dynamic vapor sorption (DVS)", "type": "physicochemical", "conditions": "for hygroscopicity class: DVS isotherm; for form of the material recovered from the DVS experiment by XRPD: post DVS", "description": "Dynamic vapor sorption data was collected on a Surface Measurement System DVS Intrinsic instrument. The samples were not dried prior to analysis. Sorption and desorption data were collected over a range from 5% to 95% RH in 10% RH increments under a nitrogen purge. The equilibrium criteria used for the analyses were 0.001 dm/dt weight change in 5 minutes with a minimum step time of 30 minutes and maximum equilibration time of 180 minutes with a 3-minute data logging interval. Data were not corrected for the initial moisture content of the sample. The samples were identified as having low, limited or significant hygroscopicity based on the definitions in the below table."}, "[2]": {"assay": "Differential scanning calorimetry / thermogravimetry", "type": "physicochemical", "conditions": "DSC 10° C./min", "description": "DSC was performed using a Mettler-Toledo DSC3+ differential scanning calorimeter. A tau lag adjustment is performed with indium, tin, and zinc. The temperature and enthalpy are adjusted with octane, phenyl salicylate, indium, tin and zinc. The adjustment is then verified with octane, phenyl salicylate, indium, tin, and zinc. The sample was placed into a hermetically sealed aluminum DSC pan, the weight was accurately recorded, and the sample was inserted into the DSC cell. A weighed aluminum pan configured as the sample pan was placed on the reference side of the cell. The pan lid was pierced prior to sample analysis. The samples were analyzed from −25° C. to 250° C. at 10° C./min.\nThermogravimetric analyses were performed using a Mettler-Toledo TGA/DSC3+ analyzer. Temperature calibration was performed using calcium oxalate, indium, tin, and zinc. The sample was placed in an aluminum pan. The pan was hermetically sealed, the lid was pierced, and the pan was then inserted into the TG furnace. A weighed aluminum pan configured as the sample pan was placed on the reference platform. The furnace was heated under nitrogen. Samples were analyzed from 25° C. to 350° C. at 10° C./min."}, "[3]": {"type": "physicochemical", "description": "XRPD patterns were collected with a PANalytical X'Pert PRO MPD or a PANalytical Empyrean diffractometer using an incident beam of Cu radiation produced using an Optix long, fine-focus source. An elliptically graded multilayer mirror was used to focus Cu Kα X-rays through the specimen and onto the detector. Prior to the analysis, a silicon specimen (NIST SRM 640e) was analyzed to verify the observed position of the Si 111 peak is consistent with the NIST-certified position. A specimen of the sample was sandwiched between 3-μm-thick films and analyzed in transmission geometry. A beam-stop, short antiscatter extension, and antiscatter knife edge were used to minimize the background generated by air. Soller slits for the incident and diffracted beams were used to minimize broadening from axial divergence. Diffraction patterns were collected using a scanning position-sensitive detector (X'Celerator) located 240 mm from the specimen and Data Collector software v. 5.5."}, "[4]": {"type": "physicochemical", "conditions": "solvent-mediated slurries, ambient temperature (Form E also 55° C. and 77° C.)", "description": "Interconversion experiments were performed to identify the most thermodynamically stable anhydrous form of Compound 1 (Table 19). […] The choice of solvent affects the kinetics of polymorph conversion and not the thermodynamic relationship between polymorphic forms.\nVarious combinations of Forms B, E, F, and Material D were slurried with Form A at ambient and elevated temperatures (for experiments involving Form E). Different solvent systems were used and included a variety of water activities. Saturated solutions were generated and then added to the mixtures composed of approximately equivalent quantities of the forms. The mixtures were slurried for a particular duration of time and the solids harvested and analyzed by XRPD."}}, "note": "“Also recorded” adds a separate entry of the source. Like-named read-outs stand apart in the source and are kept apart here.", "data": [{"smiles": "C#Cc1ccc2c(c1)C(c1ccccc1F)=N[C@H](C)c1c(C(=O)OCC)ncn1-2", "note": "[SH-053-2′F—R—CH3]", "values": [{"measurement": "number of spontaneously active DA neurons in the ventral tegmental area (VTA)", "setting": "MAM-treated rats; MAM rats, administered systemically or infused into the ventral HPC", "result": "reduces the number of spontaneously active DA neurons"}, {"measurement": "locomotor response to amphetamine", "setting": "MAM-treated rats; MAM-treated rats", "result": "is reduced"}]}, {"smiles": "COCc1nnc2n1Cc1c(C#Cc3cnc(OC)s3)ncn1-c1ccc(Cl)cc1-2", "note": "[Form F]", "values": [{"measurement": "hygroscopicity class", "setting": "[1]; 5% to 95% RH", "result": "limited hygroscopicity"}, {"measurement": "weight gain on sorption", "setting": "[1]; DVS, 5-95% RH", "result": 1.8, "unit": "%"}, {"measurement": "weight loss upon desorption", "setting": "[1]; DVS, with significant hysteresis", "result": 1.5, "unit": "%"}, {"measurement": "form of the material recovered from the DVS experiment by XRPD", "setting": "[1]", "result": "still Form F"}, {"measurement": "onset of DSC exotherm due to decomposition", "setting": "[2]", "result": "above 120 °C"}, {"measurement": "stability of the form under vacuum", "setting": "[3]; 5 days under vacuum at ambient temperature", "result": "remain unchanged"}]}, {"smiles": "COCc1nnc2n1Cc1c(C#Cc3cnc(OC)s3)ncn1-c1ccc(Cl)cc1-2", "note": "[Form E]", "values": [{"measurement": "relative thermodynamic stability between crystalline forms", "setting": "[4]", "result": "metastable relative to Form A"}]}, {"smiles": "COCc1nnc2n1Cc1c(C#Cc3cnc(OC)s3)ncn1-c1ccc(Cl)cc1-2", "note": "[Form A]", "values": [{"measurement": "hygroscopicity class", "setting": "[1]; 5% to 95% RH", "result": "limited hygroscopicity; also recorded: low hygroscopicity"}, {"measurement": "weight change through the sorption/desorption cycle", "setting": "[1]; DVS, 5% to 95% RH", "result": "~0.3", "unit": "%"}, {"measurement": "form of the material recovered from the DVS experiment by XRPD", "setting": "[1]", "result": "identified as the same as the starting material"}, {"measurement": "relative thermodynamic stability between crystalline forms", "setting": "[4]", "result": "more thermodynamically stable than Form B and Material D at ambient temperature and Form E at ambient temperature, 55° C., and 77 °C"}, {"measurement": "relative thermodynamic stability between crystalline forms", "setting": "[4]; listed as Form A of Compound 1", "result": "superior stability"}]}, {"smiles": "COCc1nnc2n1Cc1c(C#Cc3cnc(OC)s3)ncn1-c1ccc(Cl)cc1-2", "note": "[Form B]", "values": [{"measurement": "onset of DSC exotherm due to decomposition", "setting": "[2]", "result": "about 190 °C"}, {"measurement": "relative thermodynamic stability between crystalline forms", "setting": "[4]", "result": "metastable relative to Form A"}]}, {"smiles": "NC1=N[C@H](O)[C@H]2[C@H]3O[C@]4(O)O[C@@H]([C@@H](O)[C@@]2(N1)[C@@H]4O)[C@]3(O)CO", "note": "[tetrodotoxin]", "values": [{"measurement": "DA neuron population activity", "setting": "MAM-treated rats; rat, in vivo", "result": "completely reversed the elevated DA neuron population activity"}, {"measurement": "amphetamine-induced locomotor behavior", "setting": "MAM-treated rats; rat, in vivo", "result": "normalized the augmented amphetamine-induced locomotor behavior"}]}, {"smiles": "COCc1nnc2n1Cc1c(C#Cc3cnc(OC)s3)ncn1-c1ccc(Cl)cc1-2", "note": "[Material D]", "values": [{"measurement": "relative thermodynamic stability between crystalline forms", "setting": "[4]", "result": "metastable relative to Form A"}, {"measurement": "stability of the form on ambient storage", "setting": "[3]; 7 weeks of ambient storage, mixture with Form A", "result": "Material D still remained"}]}, {"smiles": "COCc1nnc2n1Cc1c(C#Cc3cnc(OC)s3)ncn1-c1ccc(Cl)cc1-2", "note": "[Form C]", "values": [{"measurement": "onset of DSC exotherm due to decomposition", "setting": "[2]", "result": 190, "unit": "°C"}, {"measurement": "stability of the form on ambient storage", "setting": "[3]; 9 weeks under ambient conditions", "result": "remain unchanged"}, {"measurement": "stability of the form on heating", "setting": "[3]; overnight exposure to 80° C.", "result": "desolvate to Form B"}]}]}
